Results reported in paper PMC6017909, “Synthesis and Evaluation of the Tumor Cell Growth Inhibitory Potential of New Putative HSP90 Inhibitors” (Molecules : A Journal of Synthetic Chemistry and Natural …, 2018).

Tests used:
NCI-H460 = assay: Cell-counting assay, 72-h drug exposure; assay type: cell-based; conditions: Homo sapiens, read-out: Cell Growth Inhibitory Activity NCI-H460 IC50 72 h
Excerpt: (§1) For the cytotoxic activity studies and determination of GI50 concentrations in three different tumor cell lines, the cell culture conditions are described in Section 3.5. For the studies on the effect on % viable cells, cell cycle, cellular proliferation, and apoptosis, culture conditions are described in Section 3.6.1. For the remaining studies, the epithelial carcinoma cell line A431 and the non-small cell lung carcinoma cell line NCI-H460 were routinely grown in RPMI 1640 (Lonza, Vierviers, Belgium), supplemented with 10% (v/v) heat-inactivated fetal bovine serum (FBS, GIBCO, Invitrogen, Paisley, UK). The human peritoneal mesothelioma cell line STO was kindly provided by Dr. N. Zaffaroni (IRCCS Istituto Nazionale Tumori, Milan, Italy) and grown in 50/50 DMEM-Ham’s F12 medium (Lonza, Vierviers, Belgium), supplemented with 10% (v/v) heat-inactivated foetal bovine serum and 2 mM L-glutamine (L-Gln). All cell lines were maintained at 37 °C in a 5%/95% CO2/air atmosphere. All the compounds tested were freshly prepared by dissolving powder in dimethylsulfoxide (DMSO) (BDH Prolabo, Milan, Italy) and following dilution in culture medium. Cells were incubated with drugs for 48 h or 72 h (unless otherwise stated) at 37 °C in culture medium supplemented with 10% (v/v) heat-inactivated FBS; drug concentrations used for each assay and duration of treatments are reported in Legends to Figures.
(§2) Cellular sensitivity to drugs was evaluated by a cell-counting assay after 72-h drug exposure. Cells in the logarithmic phase of growth were seeded in duplicate into 6-well plates. Twenty-four hours after seeding, the drug was added to the medium. Cells were harvested 72 h after drug exposure and counted with a cell counter.

A431 = assay: Cell-counting assay, 72-h drug exposure; assay type: cell-based; conditions: Homo sapiens, A-431, read-out: Cell Growth Inhibitory Activity A431 IC50 72 h
Excerpt: as §1, §2

STO = assay: Cell-counting assay, 72-h drug exposure; assay type: cell-based; conditions: Homo sapiens, read-out: Cell Growth Inhibitory Activity STO IC50 72 h
Excerpt: as §1, §2

HSP90 = target: T1, HSP90 (Homo sapiens, UniProt P07900); assay: HSP90 binding, fluorescence polarization with GM-FITC; conditions: displacement of GM-FITC 5 nM, 30 nM HSP90, 4 °C, 4 h; read-out: Binding HSP90 (FP) IC50
T1 construct: purchased Stressgen SPP-776
Protocol: GM-FITC Geldanamycin-fluorescein-5-isothiocyanate (working concentration: 1–400 nM), supplied by Invivogen (06C23-MT, San Diego, CA, USA), was previously dissolved in DMSO to obtain 10 mM stock solutions and kept at −20 °C until use. […] The compounds were previously dissolved in DMSO to obtain stock solutions and kept at −20 °C. The day of experiment, the compounds were prepared by serial dilutions in assay buffer (HFB) containing 20 mM HEPES (K) pH 7.3, 50 mM KCl, 5 mM MgCl2, 20 mM Na2MoO4 and 0.01% NP40. Before each use, 0.1 mg/mL Bovine Gamma globulin and 2 mM DTT were freshly added. […] The plate was mixed on a shaker at 4 °C for 4 h, and the FP values in mP (millipolarization units) were recorded. […] Curve fitting was performed using Prism GraphPad software program (GraphPad software, Inc., San Diego, CA, USA).

| IC50 (NCI-H460) [µM] | IC50 (A431) [µM] | IC50 (HSP90) [µM] | Compound | IC50 (STO) [µM] |
| --- | --- | --- | --- | --- |
| 0.01 ± 0.002 | 0.069 ± 0.005 | – | C=CCNC1=C2C[C@@H](C)C[C@H](OC)[C@H](O)[C@@H](C)/C=C(\C)[C@H](OC(N)=O)[C@@H](OC)/C=C\C=C(/C)C(=O)NC(=CC1=O)C2=O [Compound 17-AAG, 17-N-allylamino-17-demethoxygeldanamycin, reference compound] | – |
| 3.2 ± 0.5 | 3.1 ± 0.5 | – | O=C1c2ccccc2C(=O)c2c[n+](Cc3ccc(F)cc3F)ccc21 [Compound 2b, 2-(2,4-Difluoro-benzyl)-5,10-dioxo-5,10-dihydro-benzo[g]isoquinolinium bromide] | – |
| > 50 | 46.9 | 2.47 ± 0.09 | O=c1c2ccccc2sc2cnccc12 [Compound 7] | 46.9 |
| > 50 | > 50 | > 100 | O=c1c2ccccc2oc2c1ccc[n+]2Cc1ccccc1 [Compound 10, 1-Benzyl-10-oxo-10H-9-oxa-1-azonia-anthracene bromide] | > 50 |
| > 50 | > 50 | > 100 | O=c1c2ccccc2oc2cnccc12 [Compound 4, 5H-chromeno[2,3-c]pyridin-5-one] | > 50 |
| – | 0.46 ± 0.8 | – | CC(C)(C)c1ccc(C[n+]2ccc3c(c2)C(=O)c2ccccc2C3=O)cc1 [Compound 2c, 2-(4-tert-Butyl-benzyl)-5,10-dioxo-5,10-dihydro-benzo[g]isoquinolinium bromide] | – |
| 0.7 ± 0.01 | 0.2 ± 0.01 | – | O=C1c2ccccc2C(=O)c2c[n+](Cc3ccccc3)ccc21 [Compound 2a, 2-Benzyl-5,10-dioxo-5,10-dihydro-benzo[g]isoquinolinium bromide] | – |
